# Tested on: MV-4-11 cells
# Assay: Gene expression microarray analysis (Affymetrix PrimeView) and GSEA
# Type: cell-based, human
# Set-up: RFU PODN (11730768_x_at) / Fold change /veh PODN (11730768_x_at) / RFU LINC00158 (11744669_a_at) / Fold change /veh LINC00158 (11744669_a_at) / RFU DUSP10 (11751237_a_at) / Fold change /veh DUSP10 (11751237_a_at) / RFU ID3 (11757404_x_at) / Fold change /veh ID3 (11757404_x_at) / RFU PLEKHG5 (11737974_s_at) / Fold change /veh PLEKHG5 (11737974_s_at) / RFU LRRC4B (11730491_at) / Fold change /veh LRRC4B (11730491_at) / RFU GIMAP4 (11747438_a_at) / Fold change /veh GIMAP4 (11747438_a_at) / RFU KRT8 (11758183_x_at) / Fold change /veh KRT8 (11758183_x_at) / RFU CNN1 (11734310_a_at) / Fold change /veh CNN1 (11734310_a_at) / RFU VPS37D (11726825_at) / Fold change /veh VPS37D (11726825_at) / RFU C10orf10 (11716522_x_at) / Fold change /veh C10orf10 (11716522_x_at) / RFU KIR2DL2 /// KIR2DL4 /// KIR2DL5A /// KIR2DL5B /// KIR2DS1 /// KIR2DS2 /// KIR2DS3 /// KIR2DS4 /// KIR3DL3 /// KIR3DL3 /// KIR3DS1 (11738374_at) / Fold change /veh KIR2DL2 /// KIR2DL4 /// KIR2DL5A /// KIR2DL5B /// KIR2DS1 /// KIR2DS2 /// KIR2DS3 /// KIR2DS4 /// KIR3DL3 /// KIR3DL3 /// KIR3DS1 (11738374_at) / RFU C1QL1 (11718748_at) / Fold change /veh C1QL1 (11718748_at) / RFU TMPRSS4 (11747572_a_at) / Fold change /veh TMPRSS4 (11747572_a_at) / RFU HAMP (11756126_x_at) / Fold change /veh HAMP (11756126_x_at) / RFU RNFT2 (11725882_a_at) / Fold change /veh RNFT2 (11725882_a_at) / RFU NR4A2 (11747474_a_at) / Fold change /veh NR4A2 (11747474_a_at) / RFU ABCC12 (11746883_a_at) / Fold change /veh ABCC12 (11746883_a_at) / RFU TMEM136 (11760407_x_at) / Fold change /veh TMEM136 (11760407_x_at) / RFU CLDN22 /// WWC2 (11732394_at) / Fold change /veh CLDN22 /// WWC2 (11732394_at) / RFU HLA-DPB1 (11760878_x_at) / Fold change /veh HLA-DPB1 (11760878_x_at) / RFU SPINT1 (11716480_a_at) / Fold change /veh SPINT1 (11716480_a_at) / RFU GAP43 (11754022_s_at) / Fold change /veh GAP43 (11754022_s_at) / RFU A4GNT (11735810_at) / Fold change /veh A4GNT (11735810_at) / RFU PRB3 (11715151_x_at) / Fold change /veh PRB3 (11715151_x_at) / RFU TUBB4B (11761932_at) / Fold change /veh TUBB4B (11761932_at) / RFU CAPN14 (11732068_a_at) / Fold change /veh CAPN14 (11732068_a_at) / RFU TMCC2 (11721928_a_at) / Fold change /veh TMCC2 (11721928_a_at) / RFU IRGQ (11745062_a_at) / Fold change /veh IRGQ (11745062_a_at) / RFU FAM174B (11720279_a_at) / Fold change /veh FAM174B (11720279_a_at) / RFU TMPRSS4 (11748680_a_at) / Fold change /veh TMPRSS4 (11748680_a_at) / RFU FAM212B (11763350_a_at) / Fold change /veh FAM212B (11763350_a_at) / RFU PLEKHG5 (11743358_a_at) / Fold change /veh PLEKHG5 (11743358_a_at) / RFU ZSCAN30 (11745921_a_at) / Fold change /veh ZSCAN30 (11745921_a_at) / RFU CMKLR1 (11741424_a_at) / Fold change /veh CMKLR1 (11741424_a_at) / RFU LOC101060620 /// MAPK8IP1 (11723275_at) / Fold change /veh LOC101060620 /// MAPK8IP1 (11723275_at) / RFU SPTSSB (11747773_x_at) / Fold change /veh SPTSSB (11747773_x_at) / RFU PRSS12 (11739890_at) / Fold change /veh PRSS12 (11739890_at) / RFU BIN1 (11741810_x_at) / Fold change /veh BIN1 (11741810_x_at) / RFU WNT11 (11732464_a_at) / Fold change /veh WNT11 (11732464_a_at) / RFU C10orf10 (11716521_a_at) / Fold change /veh C10orf10 (11716521_a_at) / RFU C5orf56 (11738089_at) / Fold change /veh C5orf56 (11738089_at) / RFU CYB561 (11721691_x_at) / Fold change /veh CYB561 (11721691_x_at) / RFU ANKRD19P (11752326_a_at) / Fold change /veh ANKRD19P (11752326_a_at) / RFU OR2T12 /// OR2T33 /// OR2T8 (11738714_s_at) / Fold change /veh OR2T12 /// OR2T33 /// OR2T8 (11738714_s_at) / RFU VCAN (11748164_a_at) / Fold change /veh VCAN (11748164_a_at) / RFU JSRP1 (11732532_at) / Fold change /veh JSRP1 (11732532_at) / RFU KRTAP10-11 (11738290_x_at) / Fold change /veh KRTAP10-11 (11738290_x_at) / RFU MYO3A (11730013_a_at) / Fold change /veh MYO3A (11730013_a_at) / RFU EBF3 (11725865_a_at) / Fold change /veh EBF3 (11725865_a_at) / RFU CAMK2N1 (11719241_x_at) / Fold change /veh CAMK2N1 (11719241_x_at) / RFU C5orf56 (11738088_a_at) / Fold change /veh C5orf56 (11738088_a_at) / RFU OLFML3 (11715873_a_at) / Fold change /veh OLFML3 (11715873_a_at) / RFU LOC100653217 /// NTM (11731650_a_at) / Fold change /veh LOC100653217 /// NTM (11731650_a_at) / RFU MAPK11 (11762145_a_at) / Fold change /veh MAPK11 (11762145_a_at) / RFU FIZ1 (11724087_x_at) / Fold change /veh FIZ1 (11724087_x_at) / RFU OASL (11726364_x_at) / Fold change /veh OASL (11726364_x_at) / RFU SOX15 (11748057_x_at) / Fold change /veh SOX15 (11748057_x_at) / RFU CD79A (11719716_a_at) / Fold change /veh CD79A (11719716_a_at) / RFU HIST1H1D (11736915_at) / Fold change /veh HIST1H1D (11736915_at) / RFU CASKIN2 (11723855_a_at) / Fold change /veh CASKIN2 (11723855_a_at) / RFU LOC730098 (11760151_x_at) / Fold change /veh LOC730098 (11760151_x_at) / RFU OR4N2 (11742367_at) / Fold change /veh OR4N2 (11742367_at) / RFU PRRT2 (11749266_a_at) / Fold change /veh PRRT2 (11749266_a_at) / RFU SNX32 (11753110_a_at) / Fold change /veh SNX32 (11753110_a_at) / RFU CDHR5 (11726645_a_at) / Fold change /veh CDHR5 (11726645_a_at) / RFU RCAN1 (11760418_a_at) / Fold change /veh RCAN1 (11760418_a_at) / RFU FAM167A (11723789_a_at) / Fold change /veh FAM167A (11723789_a_at) / RFU FAM26E (11764081_at) / Fold change /veh FAM26E (11764081_at) / RFU ISYNA1 (11749810_s_at) / Fold change /veh ISYNA1 (11749810_s_at) / RFU ACY1 (11761880_at) / Fold change /veh ACY1 (11761880_at) / RFU 11764098_at / Fold change /veh 11764098_at / RFU SAMD14 (11745864_x_at) / Fold change /veh SAMD14 (11745864_x_at) / RFU NPB (11741838_a_at) / Fold change /veh NPB (11741838_a_at) / RFU TMPRSS6 (11731388_a_at) / Fold change /veh TMPRSS6 (11731388_a_at) / RFU KRTAP10-2 (11738614_at) / Fold change /veh KRTAP10-2 (11738614_at) / RFU ARHGAP8 /// PRR5-ARHGAP8 (11727945_x_at) / Fold change /veh ARHGAP8 /// PRR5-ARHGAP8 (11727945_x_at) / RFU KRTAP5-7 /// NADSYN1 (11734609_at) / Fold change /veh KRTAP5-7 /// NADSYN1 (11734609_at) / RFU RASL12 (11751679_a_at) / Fold change /veh RASL12 (11751679_a_at) / RFU CDKN2B (11736163_a_at) / Fold change /veh CDKN2B (11736163_a_at) / RFU PRF1 (11729649_at) / Fold change /veh PRF1 (11729649_at) / RFU, ZNF638 /// ZNF638-IT1 / Fold change vs veh, ZNF638 /// ZNF638-IT1 / RFU, PANK3 / Fold change vs veh, PANK3 / RFU, SH3YL1 / Fold change vs veh, SH3YL1 / RFU, ZEB2 / Fold change vs veh, ZEB2 / RFU, NRIP1 / Fold change vs veh, NRIP1 / RFU, PTTG1IP / Fold change vs veh, PTTG1IP / RFU, CAPN2 / Fold change vs veh, CAPN2 / RFU, MED14 / Fold change vs veh, MED14 / RFU, SNORA58 / Fold change vs veh, SNORA58 / RFU, C1orf63 / Fold change vs veh, C1orf63 / RFU, LRRFIP1 / Fold change vs veh, LRRFIP1 / RFU, NDUFAF7 / Fold change vs veh, NDUFAF7 / RFU, SLC12A2 / Fold change vs veh, SLC12A2 / RFU, IBTK / Fold change vs veh, IBTK / RFU, ESF1 / Fold change vs veh, ESF1 / Fold change vs veh, TMEM50B / RFU, TAOK1 / Fold change vs veh, TAOK1 / RFU, ACBD3 / Fold change vs veh, ACBD3 / RFU, TMA16 / Fold change vs veh, TMA16 / RFU, RWDD3 / Fold change vs veh, RWDD3 / RFU, BCAT1 / Fold change vs veh, BCAT1 / RFU, EDEM3 / Fold change vs veh, EDEM3 / RFU, TMEM33 / Fold change vs veh, TMEM33 / RFU, WDR75 / Fold change vs veh, WDR75 / RFU, AHCTF1 / Fold change vs veh, AHCTF1 / RFU, TFRC / Fold change vs veh, TFRC / RFU, ZDHHC17 / Fold change vs veh, ZDHHC17 / RFU, NOM1 / Fold change vs veh, NOM1 / RFU, ARL8B / Fold change vs veh, ARL8B / RFU, ZBTB11 / Fold change vs veh, ZBTB11 / RFU, TAMM41 / Fold change vs veh, TAMM41 / RFU, KIAA1704 /// LOC100996395 / Fold change vs veh, KIAA1704 /// LOC100996395 / RFU, ING1 / Fold change vs veh, ING1 / RFU, TRMT61B / Fold change vs veh, TRMT61B / RFU, FUBP3 / Fold change vs veh, FUBP3 / RFU, TP53 / Fold change vs veh, TP53 / RFU, TNKS2 / Fold change vs veh, TNKS2 / RFU, ZFP14 / Fold change vs veh, ZFP14 / RFU, ACTR2 / Fold change vs veh, ACTR2 / RFU, PPP3R1 / Fold change vs veh, PPP3R1 / RFU, PIK3R1 / Fold change vs veh, PIK3R1 / RFU, HNRNPA1 / Fold change vs veh, HNRNPA1 / RFU, RNF170 / Fold change vs veh, RNF170 / RFU, ZNF28 / Fold change vs veh, ZNF28 / RFU, RNGTT / Fold change vs veh, RNGTT / RFU, OGT / Fold change vs veh, OGT / RFU, BRD1 / Fold change vs veh, BRD1 / RFU, MARS / Fold change vs veh, MARS / RFU, ZNF655 / Fold change vs veh, ZNF655 / RFU, FAHD1 / Fold change vs veh, FAHD1 / RFU, BDP1 / Fold change vs veh, BDP1 / RFU, LRRCC1 / Fold change vs veh, LRRCC1 / RFU, ARID1A / Fold change vs veh, ARID1A / RFU, ZNF146 / Fold change vs veh, ZNF146 / RFU, ZNF330 / Fold change vs veh, ZNF330 / RFU, GPN3 / Fold change vs veh, GPN3 / RFU, C9orf123 / Fold change vs veh, C9orf123 / RFU, N4BP2L2 / Fold change vs veh, N4BP2L2 / RFU, ARFIP1 / Fold change vs veh, ARFIP1 / RFU, FAM179B / Fold change vs veh, FAM179B / RFU, BCL10 / Fold change vs veh, BCL10 / RFU, UHRF1BP1L / Fold change vs veh, UHRF1BP1L / RFU, BET1 / Fold change vs veh, BET1 / RFU, CNOT2 / Fold change vs veh, CNOT2 / RFU, ZNF268 / Fold change vs veh, ZNF268 / Fold change vs veh, ZNF507 / RFU, DGCR2 / Fold change vs veh, DGCR2 / RFU, WDSUB1 / Fold change vs veh, WDSUB1 / Fold change vs veh, HSP90B1 /// MIR3652 / RFU, ADSS / Fold change vs veh, ADSS / RFU, GK / Fold change vs veh, GK / RFU, ZNF148 / Fold change vs veh, ZNF148 / RFU, TAF9 / Fold change vs veh, TAF9 / RFU, SLC1A5 / Fold change vs veh, SLC1A5 / RFU, SLMO2 / Fold change vs veh, SLMO2 / RFU, ABCC4 / Fold change vs veh, ABCC4 / RFU, LOC101060439 /// RAP1B / Fold change vs veh, LOC101060439 /// RAP1B / RFU, RFX7 / Fold change vs veh, RFX7 / RFU, GTPBP10 / Fold change vs veh, GTPBP10 / RFU, CNEP1R1 / Fold change vs veh, CNEP1R1 / RFU, BIVM-ERCC5 /// ERCC5 / Fold change vs veh, BIVM-ERCC5 /// ERCC5 / RFU, ILF3 / Fold change vs veh, ILF3 / RFU 11762660_at / Fold change /veh 11762660_at / RFU VCAN (11757783_s_at) / Fold change /veh VCAN (11757783_s_at) / RFU DDX43 (11728927_at) / Fold change /veh DDX43 (11728927_at) / RFU KRT8 (11758188_x_at) / Fold change /veh KRT8 (11758188_x_at) / RFU NKD1 (11759106_at) / Fold change /veh NKD1 (11759106_at) / RFU SRD5A1 (11742802_a_at) / Fold change /veh SRD5A1 (11742802_a_at) / RFU TPSAB1 /// TPSB2 (11721975_s_at) / Fold change /veh TPSAB1 /// TPSB2 (11721975_s_at) / RFU GSTM3 (11746129_a_at) / Fold change /veh GSTM3 (11746129_a_at) / RFU IL23R (11737362_x_at) / Fold change /veh IL23R (11737362_x_at) / RFU TMEM51 (11727254_a_at) / Fold change /veh TMEM51 (11727254_a_at) / RFU PIWIL2 (11732686_x_at) / Fold change /veh PIWIL2 (11732686_x_at) / RFU ORM1 (11744905_x_at) / Fold change /veh ORM1 (11744905_x_at) / RFU CCDC152 (11743942_at) / Fold change /veh CCDC152 (11743942_at) / RFU ECM1 (11717891_a_at) / Fold change /veh ECM1 (11717891_a_at) / RFU IL23R (11748794_a_at) / Fold change /veh IL23R (11748794_a_at) / RFU TNFAIP8L3 (11732012_x_at) / Fold change /veh TNFAIP8L3 (11732012_x_at) / RFU MBOAT4 (11741988_at) / Fold change /veh MBOAT4 (11741988_at) / RFU 11764193_at / Fold change /veh 11764193_at / RFU TMEM53 (11763286_at) / Fold change /veh TMEM53 (11763286_at) / RFU MAGEB2 (11727129_at) / Fold change /veh MAGEB2 (11727129_at) / RFU TMEM200A (11744735_a_at) / Fold change /veh TMEM200A (11744735_a_at) / RFU CCDC152 (11751479_a_at) / Fold change /veh CCDC152 (11751479_a_at) / RFU FAM211A (11726209_a_at) / Fold change /veh FAM211A (11726209_a_at) / RFU RGS16 (11746705_a_at) / Fold change /veh RGS16 (11746705_a_at) / RFU VCAN (11755009_s_at) / Fold change /veh VCAN (11755009_s_at) / RFU RHOB (11743442_s_at) / Fold change /veh RHOB (11743442_s_at) / RFU RGS16 (11720943_a_at) / Fold change /veh RGS16 (11720943_a_at) / RFU RGS16 (11720944_at) / Fold change /veh RGS16 (11720944_at) / RFU, VPS4B / Fold change vs veh, VPS4B / RFU, CREB1 / Fold change vs veh, CREB1 / RFU, DNAJC13 / Fold change vs veh, DNAJC13 / RFU, GNAQ / Fold change vs veh, GNAQ / RFU, CDK5R1 / Fold change vs veh, CDK5R1 / RFU, ZRANB3 / Fold change vs veh, ZRANB3 / RFU, CUL4A / Fold change vs veh, CUL4A / RFU, CCNY / Fold change vs veh, CCNY / RFU, UFL1 / Fold change vs veh, UFL1 / RFU, COG3 / Fold change vs veh, COG3 / RFU, DIAPH2 / Fold change vs veh, DIAPH2 / RFU, SKA2 / Fold change vs veh, SKA2 / RFU, AFF3 / Fold change vs veh, AFF3 / RFU, LMF1 / Fold change vs veh, LMF1 / RFU, IPO11 / Fold change vs veh, IPO11 / RFU, DFFB / Fold change vs veh, DFFB / RFU, FOXP1 / Fold change vs veh, FOXP1 / RFU, CARD8 / Fold change vs veh, CARD8 / RFU, STRN3 / Fold change vs veh, STRN3 / RFU, ADK / Fold change vs veh, ADK / RFU, RASSF2 / Fold change vs veh, RASSF2 / RFU, WIPF1 / Fold change vs veh, WIPF1 / RFU, LARP1B / Fold change vs veh, LARP1B / RFU, RASA1 / Fold change vs veh, RASA1 / RFU, RB1 / Fold change vs veh, RB1 / RFU, PPFIA1 / Fold change vs veh, PPFIA1 / RFU, MAT2A / Fold change vs veh, MAT2A / RFU, CCT5 / Fold change vs veh, CCT5 / RFU, WDR92 / Fold change vs veh, WDR92 / RFU, CUX1 / Fold change vs veh, CUX1 / RFU, TTC7A / Fold change vs veh, TTC7A / RFU, TMEM135 / Fold change vs veh, TMEM135 / RFU, DEPTOR / Fold change vs veh, DEPTOR / RFU, CPM / Fold change vs veh, CPM / RFU, DNAJB6 / Fold change vs veh, DNAJB6 / RFU, CACNA2D3 / Fold change vs veh, CACNA2D3 / RFU, DTX4 / Fold change vs veh, DTX4 / RFU, TFCP2 / Fold change vs veh, TFCP2 / RFU, GMCL1 /// GMCL1P1 / Fold change vs veh, GMCL1 /// GMCL1P1 / RFU, AEBP2 / Fold change vs veh, AEBP2 / RFU, SNHG1 /// SNORD22 /// SNORD25 /// SNORD26 /// SNORD27 /// SNORD28 /// SNORD29 /// SNORD31 / Fold change vs veh, SNHG1 /// SNORD22 /// SNORD25 /// SNORD26 /// SNORD27 /// SNORD28 /// SNORD29 /// SNORD31 / Fold change (Aza/veh), C12orf56 (ProbeSet 11735607_a_at) / Fold change (ACY-1035/veh), C12orf56 (ProbeSet 11735607_a_at) / Fold change (Aza/veh), FGFR1OP (ProbeSet 11751329_s_at) / Fold change (ACY-1035/veh), FGFR1OP (ProbeSet 11751329_s_at) / Fold change (Aza/veh), VPS36 (ProbeSet 11739960_a_at) / Fold change (ACY-1035/veh), VPS36 (ProbeSet 11739960_a_at) / RFU SYPL1 (11715823_x_at) / Fold change /veh SYPL1 (11715823_x_at) / RFU IGFBP7 (11715501_s_at) / Fold change /veh IGFBP7 (11715501_s_at) / RFU REEP3 (11722064_at) / Fold change /veh REEP3 (11722064_at) / RFU IGLL1 (11728026_x_at) / Fold change /veh IGLL1 (11728026_x_at): dose or concentration left out as unconfirmed
# Conditions: MV-4-11 cells, 48 hours
structure (smiles),measurement,value
Nc1ncn([C@@H]2O[C@H](CO)[C@@H](O)[C@H]2O)c(=O)n1 [azacitidine],RFU MAGEB2 (11727129_at),14.25 RFU

# From article PMC5218480 (PLoS ONE, 2017)
